# Assay results taken from patent US12195804B2, “Treatment of squamous cell carcinoma” (Board of Regents, The University of Texas System, priority 2018, dated 2025).
# Assays:
# UMSCC49 cells = experiment: CellTiter-Glo viability, UMSCC49 parental and NOTCH1 KO; type: cell-based, human; details: 72 hours
# Experimental: FIGS. 9A-9D: NOTCH1 knockout (KO) sensitizes two NOTCH1^WT head and neck squamous cell carcinoma (HNSCC) cell lines to PI3K/mTOR pathway inhibition in vitro. Two NOTCH1^WT HNSCC cell lines (PJ34 and UMSCC49 [UM49]), parental cell lines, and NOTCH1 KO cell lines were treated with PI3K/mTOR pathway inhibitors. FIG. 9A. The CellTiter-Glo assay was used to assess the viability of cells treated for 72 hours with the indicated concentrations of GSK2126458 (GSK212). FIG. 9B. Western blot analysis of apoptosis markers, NOTCH1, and NOTCH intracellular domain (NICD) was performed after treatment with the indicated concentrations of GSK212 for 48 hours. FIG. 9C. Apoptosis in cells treated with 50 nM GSK212 or 200 nM BEZ235 for 48 hours was measured using an Annexin V/propidium iodide assay. Values are the means±standard deviations of three independent experiments. *p<0.05, unpaired two-tailed Student t-test. FIG. 9D. […] Colony areas as percentages of the control were measured using ImageJ. […]
# Cell viability assay. […] Inhibitory concentration (ICs) and area under the curve (AUC) values were calculated using the drexplorer R package with a best-fit dose-response model (Zumsteg et al., 2016). The combination indices were calculated using the Chou-Talalay method (Cal et al., 2017) in CalcuSyn (Biosoft, Cambridge, UK). […]
# HNSCC cell lines = experiment: Apoptosis assays (Annexin V/propidium iodide, BrdU TUNEL, cleaved PARP/caspase 3); type: cell-based, human; details: 50 nM
# Experimental: FIGS. 7A-7D: PI3K/mTOR signaling inhibition induces cell death in NOTCH1^MUT but not NOTCH1^WT head and neck squamous cell carcinoma (HNSCC) cell lines in vitro. FIG. 7A. Annexin V/propidium iodide or BrDU-terminal deoxynucleotidyl transferase (TdT) dUTP nick-end labeling (TUNEL) assays were used to measure apoptosis in HNSCC cells with the indicated NOTCH1 and PIK3CA mutations, which were treated with 50 nM GSK2126458 (GSK212) for 24 or 48 hours, respectively. Values are the means±standard deviations of three independent experiments. *p<0.05, unpaired two-tailed Student t-test. FIG. 7B. Western blotting of cleaved PARP (Cl-PARP) and cleaved caspase 3 (Cl-Caspase 3) levels in mutant and wild type cells after GSK212 treatment for 48 hours. FIG. 7C. NOTCH1^MUT and NOTCH1^WT HNSCC cells were plated sparsely and treated with GSK212 at the indicated concentrations for 48 hours. At 14-21 days after treatment, the cells were fixed and stained, images were captured using the GelCount Tumour Colony Counter, and colony numbers and the colorimetric intensity of the colonies were determined by measuring the optical density (OD) at 570 nm. Values are the means±standard deviations of three independent experiments. *p<0.001, unpaired two-tailed Student t-test. FIG. 7D. Three NOTCH1^WT lines (black text and bars) and three NOTCH1^MUT lines (red text and bars) were treated with increasing concentrations of GSK212 for 4 hours, and levels of PI3K/mTOR pathway proteins were measured by Western blot analysis.
# Western blot analysis. Western blot analysis was performed as described previously (Ferrarotto et al., 2016). In brief, cells were lysed with ice-cold lysis buffer, and the lysates were centrifuged at 20,000×g for 10 minutes at 4° C. Cell samples containing equal amounts of protein were resolved using sodium dodecyl sulfate-polyacrylamide gel electrophoresis, transferred to nitrocellulose membranes, and immunoblotted with different primary antibodies. Protein expression was detected using a horseradish peroxidase-conjugated secondary antibody (Bio-Rad, Hercules, CA) and electrochemiluminescence reagent (Amersham Biosciences, Pittsburg, PA).
# Apoptosis and cell cycle assays. To measure apoptosis, we performed terminal deoxynucleotidyl transferase dUTP nick end labeling (TUNEL) staining with an APO-BRDU Kit (BD Biosciences, San Jose, CA) and Annexin V/propidium iodide staining with an FITC Annexin V Apoptosis Detection Kit (BD Pharmingen, San Diego, CA) as described previously (Chandarlapaty et al., 2011). […] Data were acquired with a three-laser, 10-color Gallios flow cytometer (Beckman Coulter, Brea, CA) and analyzed using Kaluza software (Beckman Coulter, Brea, CA). […]
smiles,measurement,setting,value
COc1ncc(-c2ccc3nccc(-c4ccnnc4)c3c2)cc1NS(=O)(=O)c1ccc(F)cc1F [GSK2126458],IC70,UMSCC49 cells; UMSCC49 NOTCH1 KO,360 nM
same,IC70,UMSCC49 cells; UMSCC49 parental,1480 nM
same,apoptosis in PDK1-overexpressing versus parental lines,"HNSCC cell lines; 24 or 48 hours, NOTCH1MUT cells overexpressing PDK1",decreased apoptosis
same,apoptosis,"HNSCC cell lines; 24 or 48 hours, NOTCH1MUT lines",induced significant apoptosis
same,apoptosis,HNSCC cell lines; two NOTCH1WT/PIK3CAWT and three NOTCH1WT/PIK3CAMUT lines,no apoptosis was detected
